Experiments:
[1] = tested on: human peripheral blood mononuclear cells; test: Human osteoclast formation from peripheral blood mononuclear cells; format: cell-based; conditions: human PBMC, M-CSF 25 ng/ml + sRANKL 50 ng/ml, 1 nM peptide (FIG. 3)
Description: Human peripheral blood mononuclear cells were isolated from 3 buffy coats obtained at the Etablissement Francais du Sang (Angers, France) as described in Mabilleau and Sabokbar (2009) PLoS One 4:e4173. Blood was diluted 1:1 in α-minimal essential medium (MEM) (Invitrogen, Paisley, UK), layered over Histopaque and centrifuged (700×g) for 20 min. The interface layer was resuspended in MEM then centrifuged (600×g) for a further 10 min after which the resultant cells were resuspended in media supplemented with 10% heat inactivated foetal calf serum (FCS, Invitrogen, Paisley, UK) and counted in a haemocytometer following lysis of red blood cells using a 5% (v/v) acetic acid solution. […] (2011) J Biol Chem 286:3242-3249). After 2 h incubation, cultures were vigorously rinsed in medium to remove non-adherent cells, and then maintained in 1 ml MEM/FCS with 25 ng/ml recombinant human M-CSF, 50 ng/ml recombinant human sRANKL (added at day 7) and various concentrations of gut hormone analogues (added at day 7). Cultures were terminated after 14 days to assess the extent of osteoclast formation (TRAcP staining as described below). All factors were replenished every 2-3 days. […] Cultures were rinsed three times in distilled water and the residual activity was inhibited by 4% NaF for 30 minutes. […] The number of newly generated were assessed using light microscopic examination.

human GLP-2r = target: T1, human GLP-2r (Homo sapiens, UniProt O95838); test: Cyclic AMP assay (FRET, H74 probe), HEK-293 transfected with human GLP-2r; format: cell-based; conditions: HEK 293 transfected only with human GLP-2r, 10^-9 M, 30 min (FIG. 17)
T1 construct: host or cells: HEK-293
T1 sequence (O95838 1-553): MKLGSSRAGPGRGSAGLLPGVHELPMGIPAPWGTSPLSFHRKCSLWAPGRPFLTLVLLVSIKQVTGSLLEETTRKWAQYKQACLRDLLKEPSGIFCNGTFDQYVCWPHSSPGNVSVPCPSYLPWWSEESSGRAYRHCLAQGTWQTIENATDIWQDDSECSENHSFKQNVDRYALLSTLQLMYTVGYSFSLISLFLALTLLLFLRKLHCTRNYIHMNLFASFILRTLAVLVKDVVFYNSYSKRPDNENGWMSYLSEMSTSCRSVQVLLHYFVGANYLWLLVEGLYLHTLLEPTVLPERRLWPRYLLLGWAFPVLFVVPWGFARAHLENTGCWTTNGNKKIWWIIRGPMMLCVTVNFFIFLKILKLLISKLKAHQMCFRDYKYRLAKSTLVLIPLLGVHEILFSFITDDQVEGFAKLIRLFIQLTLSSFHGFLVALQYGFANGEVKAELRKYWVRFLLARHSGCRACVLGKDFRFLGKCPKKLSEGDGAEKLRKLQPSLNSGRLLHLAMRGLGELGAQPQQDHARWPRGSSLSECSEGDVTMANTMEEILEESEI
Description: (§1) Human HEK-293 cells were plated at a density of 2×10^5 cells/cm^2 in 4 well microslides (ibidi GmbH, Martinsried, Germany). […] Jalink (Netherland Cancer Institute, Amsterdam, Netherland). […] The image acquisition was performed with a 63 X, 1.4 N.A. oil immersion objective and a Hybrid® detector (Leica) and images were collected after 30 minutes. Donor excitation was made with a 458 nm Ar laser, donor emission was collected between 460-505 nm and acceptor emission between 520-600 nm by setting the SP8 spectrometer accordingly. FRET was expressed as the ratio between donor and acceptor signals.

[2] = tested on: MC3T3-E1 subclone 4 cells; format: cell-based, murine
Description: Briefly, MC3T3-E1 subclone 4 cells have been grown and propagated in α-MEM supplemented with 5% fetal bovine serum (FBS), 5% bovine calf serum (BCS), 100 U/mL penicillin, and 100 μg/mL streptomycin in a humidified atmosphere enriched with 5% CO2 at 37° C. […] This day was considered as day 1. The differentiation medium was replenished every two days. […] Cultures were rinsed at least six times with milliQ water, fixed in absolute ethanol, scrapped off the culture dish and transferred onto BaF2 windows where they were air-dried. Integrity of the collagen extracellular matrix was verified by comparing the obtained Fourier transform infrared spectrum with those of commercial collagen. Spectral analysis was performed using a Bruker Vertex 70 spectrometer (Bruker optics, Ettlingen, Germany) interfaced with a Bruker Hyperion 3000 infrared microscope equipped with a standard single element Mercury Cadmium Telluride (MCT) detector. Calibration of the infrared spectrometer is done once a week with a polystyrene film standard (Bruker optics). Infrared spectra were recorded at a resolution of 4 cm^-1, with an average of 32 scans in transmission mode. Background spectral images were collected under identical conditions from the same BaF2 windows at the beginning and end of each experiment to ensure instrument stability. At least 5 spectra were acquired for each condition and analyzed with a lab-made routine script (version 2.0) in Matlab R2016b (The Mathworks, Natick, MA). […] For GIP and GLP-2 dataset, the inventors used the collagen maturity data previously acquired and analyzed. First of all, collagen maturity obtained in control cultures, i.e. in the absence of double GIP/GLP-2 analogues, were averaged and subtracted to the all dataset. […] For each concentration of peptide, the mean, SD and number of events were computed. […] The GraphPad Prism analysis consisted in: […] Statistical Analysis […] Data are represented as mean±SD.

Murine Raw 264.7 cells = format: cell-based
Description: Murine Raw 264.7 cells were grown and expanded in propagation medium containing Dulbecco's modified Eagle medium (DMEM-Gibco) supplemented with 10% fetal bovine serum (FBS-Lonza), 100 U/mL penicillin and 100 μg/mL streptomycin (Gibco) in a humidified atmosphere enriched with 5% CO2 at 37° C. The first passage after thawing Raw 264.7 cells was considered as passage 1. Cells were used up to passage 8. […] Cultures were rinsed three times in distilled water and the residual activity was inhibited by 4% NaF (Sigma-Aldrich) for 30 min. Cells were then rinsed in distilled water and allowed to dry. TRAcP positive cells, with more than three nuclei, were identified as osteoclasts. The number of newly generated osteoclasts was assessed using light microscopic examination by a histologist that was blinded to the treatment intervention. […] For each concentration of peptide, the mean, SD and number of events were computed.

Murine MC3T3-E1 cells = test: Collagen maturity assay in MC3T3-E1 cultures (Example 2); format: cell-based; conditions: MC3T3-E1 cultures, 200 nM, vs vehicle (FIG. 2)
Description: At confluence, the propagation medium was replaced by the differentiation medium containing αMEM supplemented with 5% FBS, 5% bovine calf serum, 100 U/mL penicillin, 100 μg/mL streptomycin, 50 μg/ml ascorbic acid and various concentrations of analogues. This day was considered as day 1. The differentiation medium was replenished every two days. […] Cultures were rinsed at least six times with milliQ water, fixed in absolute ethanol, scrapped off the culture dish and transferred onto BaF2 windows where they were air-dried. Integrity of the collagen extracellular matrix was verified by comparing the obtained Fourier transform infrared spectrum with those of commercial collagen. Spectral analysis was performed using a Bruker Vertex 70 spectrometer (Bruker optics, Ettlingen, Germany) interfaced with a Bruker Hyperion 3000 infrared microscope equipped with a standard single element Mercury Cadmium Telluride (MCT) detector. Infrared spectra were recorded at a resolution of 4 cm^−1, with an average of 32 scans in transmission mode. Background spectral images were collected under identical conditions from the same BaF2 windows at the beginning and end of each experiment to ensure instrument stability. At least 20 spectra were acquired for each condition and analyzed with a lab-made routine script in Matlab R2016b (The Mathworks, Natick, MA).

[3] = tested on: human GIPr and the human GLP-2r; test: Cyclic AMP assay (FRET, H74 probe), HEK-293 co-transfected with human GIPr and human GLP-2r; format: cell-based; conditions: HEK 293 co-transfected with human GIPr and human GLP-2r, 10^-9 M, 30 min (FIG. 18)
Description: as §1

[4] = tested on: ovariectomy-induced bone loss in mice; test: Trabecular bone microarchitecture, fifth lumbar vertebra, ovariectomized mice; format: in vivo; conditions: OVX mice, L5, once 100 μg/kg iv, vs vehicle
Description: At 16 weeks of age, ALZET osmotic pumps (model number 2006, Durect Corp., Cupertino, CA) filled with the below saline or peptide were implanted subcutaneously between the two scapula under general anesthesia in 32 mice. Successful filling of pumps was verified by weighting the pump before and after filling. At 20 weeks of age, ALZET osmotic pumps were replaced by similar pumps to ensure delivery for four new weeks. […] This dose and regimen of zoledronic acid was equivalent to the 5 mg infusion approved for the treatment of post-menopausal osteoporosis in humans. Analyses of vertebral bodies of the fifth lumbar vertebra (L5) were performed with a Nanotom nanotomograph (Phoenix, GE, USA) operated at 85 kV, 220 μA, 1000 ms integration time. The isotropic pixel size was fixed at 4 μm, the rotation step at 0.25° and exposure was done with a 0.1 mm copper filter. Each 3D reconstruction image dataset was binarized using global thresholding. Trabecular volume of interest was computerized on coronal sections of the L5 vertebral body. Trabecular VOI was spread over the entire vertebral body excluding the first and last 80 μm from the anterior and posterior cortical wall. All microCT/NanoCT parameters were determined according to guidelines and nomenclature proposed by the American Society for Bone and Mineral Research (Bouxsein et al., 2010).

[5] = tested on: ovariectomy-induced bone loss in mice; test: Bone matrix composition by FTIRI at the femur midshaft, ovariectomized mice; format: in vivo; conditions: OVX mice, cortical bone femur, once 100 μg/kg iv, vs vehicle
Description: At 16 weeks of age, ALZET osmotic pumps (model number 2006, Durect Corp., Cupertino, CA) filled with the below saline or peptide were implanted subcutaneously between the two scapula under general anesthesia in 32 mice. Successful filling of pumps was verified by weighting the pump before and after filling. At 20 weeks of age, ALZET osmotic pumps were replaced by similar pumps to ensure delivery for four new weeks. […] This dose and regimen of zoledronic acid was equivalent to the 5 mg infusion approved for the treatment of post-menopausal osteoporosis in humans. After three-point bending experiments, femurs were embedded undecalcified in pMMA at 4° C. One-micrometer cross-sectional sections of the midshaft femur were sandwiched between BaF2 optical windows and Fourier transform infrared imaging (FTIRI) assessment was performed in the posterior quadrant. FTIRI was performed with a vertex 70 spectrometer (Bruker, Ettlingen, Germany) interfaced with a Hyperion 3000 microscope and a focal plane array detector (64×64 pixels) covering a field of view of 180×180 μm. Nine field-of-view were stitched together to allow sufficient bone to be analyzed. Sections were scanned with a spectral resolution of 8 cm^-1 (spectral region 900-2000 cm^-1). Each spectrum was corrected for Mie scattering with the […]5 algorithm (kind gift of Prof Peter Gardner, University of Manchester, UK) prior to be subjected to pMMA subtraction. Evaluation of spectral images was done with a lab-made routine script in Matlab R2016b (The Mathworks, Natick, MA) as described in Aguado et al. (2017) Calcif Tissue Int 100:332-340. FTIR bone parameters ([…] (2012) Methods Mol Biol 816:517-525) calculated were: (1) phosphate/amide ratio (area of v1, v3 phosphate/area amide1); (2) acid phosphate content (intensity ratio 1127 cm^-1/1096 cm^-1) (Spevak et al. (2013) Calcif Tissue Int 92:418-428); (3) mineral crystallinity (intensity ratio 1030 cm^-1/1020 cm^-1), reflecting crystal size and perfection; […] (2001) J Bone Miner Res 16:893-900). For each of the compositional parameters, the mean and full width at half maximum of the pixel distribution (excluding the zero background values) were computed and represented as mean and heterogeneity.

Row | intracellular levels of cAMP (human GLP-2r) | EC50 [2] | EC50 (Murine Raw 264.7 cells) | Structure (SMILES) | reduction in osteoclast formation [1] | Emax for dose-effect curves on collagen maturity ([2]; MC3T3-E1, day 14) | IC50 computed from curve fitting of osteoclastogenesis vs. peptide concentration (Murine Raw 264.7 cells; Raw 264.7, RANKL 10 ng/ml, 110 h, * values determined from previous experiments, in pM) | Emax, maximum inhibitory effect on osteoclastogenesis (Murine Raw 264.7 cells; Raw 264.7, * data obtained in previous experiments) | increase in collagen maturity (Murine MC3T3-E1 cells) | intracellular levels of cAMP [3] | increase in trabecular bone mass (BV/TV) [4] | increase in trabecular number [4] | augmentation of mineral crystallinity heterogeneity [5]
1 | increased intracellular levels of cAMP | 0.063 ± 0.042 nM | 0.0322 nM | CC[C@H](C)[C@H](NC(=O)[C@H](Cc1ccccc1)NC(=O)[C@H](CC(=O)O)NC(=O)[C@H](CCCNC(=N)N)NC(=O)[C@H](C)NC(=O)[C@H](C)NC(=O)[C@H](CC(C)C)NC(=O)[C@H](CC(N)=O)NC(=O)[C@H](CC(=O)O)NC(=O)[C@H](CC(C)C)NC(=O)[C@@H](NC(=O)[C@@H](NC(=O)[C@H](CC(N)=O)NC(=O)[C@H](CCSC)NC(=O)[C@H](CCC(=O)O)NC(=O)[C@H](CC(=O)O)NC(=O)[C@H](CO)NC(=O)[C@H](Cc1ccccc1)NC(=O)[C@H](CO)NC(=O)CNC(=O)[C@H](CC(=O)O)NC(=O)CNC(=O)[C@@H](N)Cc1c[nH]cn1)[C@@H](C)O)[C@@H](C)CC)C(=O)N[C@@H](CC(N)=O)C(=O)N[C@@H](Cc1c[nH]c2ccccc12)C(=O)N[C@@H](CC(C)C)C(=O)N[C@H](C(=O)N[C@@H](CCC(N)=O)C(=O)N[C@H](C(=O)N[C@@H](CCCCN)C(=O)N[C@H](C(=O)N[C@H](C(=O)N[C@@H](CC(=O)O)C(=O)O)[C@@H](C)O)[C@@H](C)CC)[C@@H](C)O)[C@@H](C)CC [[Gly^2]GLP-2] | 34% | 119.3% | 32.2* | 68.12* % | ~111% | increased intracellular levels of cAMP |  |  | 
2 |  |  |  | O=P(O)(O)C(O)(Cn1ccnc1)P(=O)(O)O [zoledronic acid] |  |  |  |  |  |  | 15% | 12% | 21%
